According to patent US12528814B2, “Bifunctional degraders of interleukin-1 receptor-associated kinases and therapeutic use thereof” (NURIX THERAPEUTICS, INC., priority 2020, dated 2026):
Entries after “also recorded” stand apart in the source; their conditions may differ.

Target: Ikaros (Homo sapiens (Human), UniProt Q13422+Q96SW2)
Test: Flow Cytometry-Based Assay for Ikaros Degradation
Assay type: cell-based
Conditions: 24 hours; for DC50: Jurkat cells (Clone E6-1); for Ikaros (CRBN neosubstrate) degradation, in words: Jurkat cells
Procedure: Flow Cytometry-Based Assay for Aiolos and Ikaros Degradation
Jurkat cells (Clone E6-1) were treated with DMSO or compound for 24 hours and then fixed and permeabilized using a Foxp3/Transcription Factor Fixation/Permeabilization Kit (eBioscience, cat. no. 00-5523). Cells were stained with fluorophore-conjugated antibodies against Ikaros (Biolegend 368414) and Aiolos (Biolegend, cat. no. 371106). An additional set of DMSO-treated cells was stained with fluorophore-conjugated isotype control antibodies (Biolegend, cat. no. 400254 and 400136). Stained cells were run on an Attune N×T Acoustic Focusing Flow Cytometer (Thermo-Fisher, cat. no. A29004), and data was analyzed using FlowJo (v10.5.3) and GraphPad Prism (v7.00) software. Single cells were gated, and the geometric mean fluorescence intensities (MFIs) of Ikaros and Aiolos were calculated. The MFI of the isotype control was calculated for each analyte and used to quantify background staining. Percent Ikaros or Aiolos degradation was calculated for each compound-treated sample using the following equation: % Degradation=[…]

Ikaros, sequence (Q13422 whole entry): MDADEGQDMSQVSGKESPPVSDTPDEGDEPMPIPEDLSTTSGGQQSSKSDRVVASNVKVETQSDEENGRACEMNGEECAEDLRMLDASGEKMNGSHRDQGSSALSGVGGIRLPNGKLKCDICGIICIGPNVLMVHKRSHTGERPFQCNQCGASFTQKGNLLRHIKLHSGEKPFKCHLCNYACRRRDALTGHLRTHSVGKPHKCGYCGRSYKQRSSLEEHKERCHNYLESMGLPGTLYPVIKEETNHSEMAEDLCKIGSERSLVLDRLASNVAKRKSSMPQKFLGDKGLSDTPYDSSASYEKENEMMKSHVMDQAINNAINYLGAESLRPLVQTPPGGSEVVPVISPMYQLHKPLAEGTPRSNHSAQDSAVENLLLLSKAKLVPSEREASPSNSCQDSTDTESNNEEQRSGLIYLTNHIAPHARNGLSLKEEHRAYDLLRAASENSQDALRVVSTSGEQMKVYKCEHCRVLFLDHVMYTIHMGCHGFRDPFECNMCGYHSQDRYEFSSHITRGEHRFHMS
Ikaros, sequence (Q96SW2 whole entry): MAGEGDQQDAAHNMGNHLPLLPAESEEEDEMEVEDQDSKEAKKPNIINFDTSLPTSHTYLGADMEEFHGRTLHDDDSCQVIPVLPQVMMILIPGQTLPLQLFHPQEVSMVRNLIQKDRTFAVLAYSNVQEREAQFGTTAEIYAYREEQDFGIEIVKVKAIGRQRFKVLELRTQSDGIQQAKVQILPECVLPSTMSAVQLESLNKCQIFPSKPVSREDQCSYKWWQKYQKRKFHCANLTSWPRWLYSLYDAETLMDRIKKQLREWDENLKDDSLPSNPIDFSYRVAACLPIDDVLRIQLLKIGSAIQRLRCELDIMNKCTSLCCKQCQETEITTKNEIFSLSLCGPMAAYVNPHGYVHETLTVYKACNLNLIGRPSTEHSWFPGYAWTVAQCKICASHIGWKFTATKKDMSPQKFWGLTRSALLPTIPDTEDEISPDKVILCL
Ikaros, sequence (Q16531 whole entry partner): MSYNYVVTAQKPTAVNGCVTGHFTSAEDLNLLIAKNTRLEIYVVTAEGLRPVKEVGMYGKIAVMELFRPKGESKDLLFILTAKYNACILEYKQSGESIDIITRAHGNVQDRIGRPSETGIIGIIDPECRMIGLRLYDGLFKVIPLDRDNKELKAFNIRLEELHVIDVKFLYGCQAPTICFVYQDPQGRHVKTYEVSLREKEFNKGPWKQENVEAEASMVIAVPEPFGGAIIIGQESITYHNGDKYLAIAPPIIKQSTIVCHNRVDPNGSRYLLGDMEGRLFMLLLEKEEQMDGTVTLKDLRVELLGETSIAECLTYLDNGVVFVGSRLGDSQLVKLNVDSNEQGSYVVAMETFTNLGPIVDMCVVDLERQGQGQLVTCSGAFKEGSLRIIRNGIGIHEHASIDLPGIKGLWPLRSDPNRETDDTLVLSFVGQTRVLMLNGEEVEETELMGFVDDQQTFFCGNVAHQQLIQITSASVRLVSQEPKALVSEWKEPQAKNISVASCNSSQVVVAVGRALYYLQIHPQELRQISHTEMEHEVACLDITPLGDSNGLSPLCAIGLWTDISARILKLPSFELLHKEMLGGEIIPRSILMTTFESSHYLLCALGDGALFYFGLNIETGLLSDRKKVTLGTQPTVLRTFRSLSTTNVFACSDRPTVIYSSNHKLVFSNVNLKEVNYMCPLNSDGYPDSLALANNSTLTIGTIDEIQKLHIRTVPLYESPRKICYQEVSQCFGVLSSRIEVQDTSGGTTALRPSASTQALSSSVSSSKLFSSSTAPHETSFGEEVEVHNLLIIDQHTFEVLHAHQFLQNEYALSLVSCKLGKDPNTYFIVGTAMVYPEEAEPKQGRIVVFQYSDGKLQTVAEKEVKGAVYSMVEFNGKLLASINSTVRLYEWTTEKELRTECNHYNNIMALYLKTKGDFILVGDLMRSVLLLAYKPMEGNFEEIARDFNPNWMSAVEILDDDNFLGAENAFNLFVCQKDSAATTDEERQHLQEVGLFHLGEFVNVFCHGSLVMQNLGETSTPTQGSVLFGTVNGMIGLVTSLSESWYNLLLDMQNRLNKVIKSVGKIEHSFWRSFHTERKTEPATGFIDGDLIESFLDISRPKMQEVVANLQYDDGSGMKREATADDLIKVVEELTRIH

Structure (SMILES) | DC50 [µM] | Ikaros (CRBN neosubstrate) degradation, in words
NC(=O)c1nn(-c2ccc(C(=O)NCCOCCOCCNc3cccc4c3C(=O)N(C3CCC(=O)NC3=O)C4=O)cc2)cc1NC(=O)c1coc(-c2ccnc(NCC(F)(F)F)c2)n1 (centres unmarked) [Comparative Compound a2, reference compound] | 0.02 | induced neosubstrate degradation; also recorded: degraded both Ikaros and Aiolos
Cc1ncsc1-c1ccc(CNC(=O)[C@@H]2C[C@@H](O)CN2C(=O)[C@@H](NC(=O)C2(F)CC2)C(C)(C)C)c(OCCOCCC(=O)N2CCN(c3nnc(-c4cnc(-c5ccc6cc(C#N)cnn56)cc4NC(C)C)s3)CC2)c1 [Example 47, (2S,4R)—N-(2-(2-(3-(4-(5-(6-(3-cyanopyrrolo[1,2-b]pyridazin-7-yl)-4-(isopropylamino)pyridin-3-yl)-1,3,4-thiadiazol-2-yl)piperazin-1-yl)-3-oxopropoxy)ethoxy)-4-(4-methylthiazol-5-yl)benzyl)-1-((S)-2-(1-fluorocyclopropane-1-carboxamido)-3,3-dimethylbutanoyl)-4-hydroxypyrrolidine-2-carboxamide] | > 5 | none of Compounds 13, 24, 47, and 35 displayed neosubstrate degradation
CC[C@@H]1[C@H](F)C(=O)N[C@@H]1COc1ncc(C#CCN2CCC3(CC2)CCN(c2ncc(C(=O)N[C@H](C(=O)N4C[C@H](O)C[C@H]4C(=O)NCc4ccc(-c5scnc5C)cc4)C(C)(C)C)cn2)CC3)c2cc(C(N)=O)c(OC)cc12 [Comparative b1, reference compound] | > 5 | 
CC(C)Nc1cc(-c2ccc3cc(C#N)cnn23)ncc1-c1nnc(N2CCN(C(=O)C3CCN(CC4CCN(c5ccc(-c6nn(C7CCC(=O)NC7=O)c(=O)n6C)cc5)CC4)CC3)CC2)s1 (centres unmarked) [Example 24, 7-(5-(5-(4-(1-((1-(4-(1-(2,6-dioxopiperidin-3-yl)-4-methyl-5-oxo-4,5-dihydro-1H-1,2,4-triazol-3-yl)phenyl)piperidin-4-yl)methyl)piperidine-4-carbonyl)piperazin-1-yl)-1,3,4-thiadiazol-2-yl)-4-(isopropylamino)pyridin-2-yl)pyrrolo[1,2-b]pyridazine-3-carbonitrile] | > 5 | none of Compounds 13, 24, 47, and 35 displayed neosubstrate degradation
CC(C)Nc1cc(-c2ccc3cc(C#N)cnn23)ncc1-c1nnc(N2CCN(C(=O)C3CCN(Cc4ccc5c(c4)C(=O)N(C4CCC(=O)NC4=O)C5=O)CC3)CC2)s1 (centres unmarked) [Example 13, 7-(5-(5-(4-(1-((2-(2,6-dioxopiperidin-3-yl)-1,3-dioxoisoindolin-5-yl)methyl)piperidine-4-carbonyl)piperazin-1-yl)-1,3,4-thiadiazol-2-yl)-4-(isopropylamino)pyridin-2-yl)pyrrolo[1,2-b]pyridazine-3-carbonitrile] | > 5 | none of Compounds 13, 24, 47, and 35 displayed neosubstrate degradation
Cc1ncsc1-c1ccc(CNC(=O)[C@@H]2C[C@@H](O)CN2C(=O)[C@@H](NC(=O)CCCC(=O)N2CCN(c3nnc(-c4cnc(-c5ccc6cc(C#N)cnn56)cc4NC(C)C)s3)CC2)C(C)(C)C)cc1 [Example 35, (2S,4R)-1-((S)-2-(5-(4-(5-(6-(3-cyanopyrrolo[1,2-b]pyridazin-7-yl)-4-(isopropylamino)pyridin-3-yl)-1,3,4-thiadiazol-2-yl)piperazin-1-yl)-5-oxopentanamido)-3,3-dimethylbutanoyl)-4-hydroxy-N-(4-(4-methylthiazol-5-yl)benzyl)pyrrolidine-2-carboxamide] | > 5 | none of Compounds 13, 24, 47, and 35 displayed neosubstrate degradation
